The assay concerns the target T1, human PD-1 / PD-L1-Ig binding on Jurkat cell line over-expressing human PD-1 (Jurkat-PD-1) (Homo sapiens, UniProt Q15116).
T1 construct: expressed in transfected cells; host or cells: Jurkat
The experiment in a line: Jurkat-PD-1 Cell Binding High-Content Screening Assay (CBA). The class given is cell-based. The conditions noted are these: PE-labeled PD-L1-Ig 20 nM final. Summed up: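 PE-PD-L1-Ig 20 nM final; cells in DMEM/10% FCS; cpd pre-incubation 2 h, 37° C; ligand 1 h; PFA fix + Hoechst 33342; high-content imaging read-out.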

[1] abbreviates: Jurkat-PD-1 cells, read-out: Jurkat HPD1_PDL1 IC50.
The mark [2] stands for this setting: Jurkat HPD1_PDL1 IC50, Jurkat-PD-1 cells.

Read-outs that look alike come from different tables or passages of the source. *1 amine or outer side, *2 acyl side, *3 side chain or, on linkers, in order; H or OH if unused. Where a SMILES comes first, the peptide text is derived from it. Bridges are numbered along the chain shown (N, C = ends). [ ]: non-standard residue; d: D form. The star is where a group is joined. X3 = O=C([C@H](CCCNC[C@@H](O)[C@H](O)[C@H](O)[C@@H](O)[C@H](O)CO)N[*:1])[*:2]; X4 = O=C([C@H](CCNC[C@@H](O)[C@H](O)[C@H](O)[C@@H](O)[C@H](O)CO)N[*:1])[*:2]; Phe(4-COOH) = N[C@@H](Cc1ccc(C(=O)O)cc1)C(=O)O; Phe(3,5-F2) = N[C@@H](Cc1cc(F)cc(F)c1)C(=O)O; Bip = N[C@@H](Cc1ccc(-c2ccccc2)cc1)C(=O)O; Phe(4-CN) = N#Cc1ccc(C[C@H](N)C(=O)O)cc1; Phe(4-NH2) = Nc1ccc(C[C@H](N)C(=O)O)cc1; Phe(3-F) = N[C@@H](Cc1cccc(F)c1)C(=O)O; Phe(3-Me) = Cc1cccc(C[C@H](N)C(=O)O)c1; Cha = N[C@@H](CC1CCCCC1)C(=O)O; Cit = NC(=O)NCCC[C@H](N)C(=O)O; dCha = N[C@H](CC1CCCCC1)C(=O)O; Carboxymethyl = O=C(O)C*; Nle = CCCC[C@H](N)C(=O)O; Orn = NCCC[C@H](N)C(=O)O; Pra = C#CC[C@H](N)C(=O)O; Dab = NCC[C@H](N)C(=O)O; Nva = CCC[C@H](N)C(=O)O; Dap = NC[C@H](N)C(=O)O; Propargyl = C#CC*

T1 sequence (Q15116 25-288): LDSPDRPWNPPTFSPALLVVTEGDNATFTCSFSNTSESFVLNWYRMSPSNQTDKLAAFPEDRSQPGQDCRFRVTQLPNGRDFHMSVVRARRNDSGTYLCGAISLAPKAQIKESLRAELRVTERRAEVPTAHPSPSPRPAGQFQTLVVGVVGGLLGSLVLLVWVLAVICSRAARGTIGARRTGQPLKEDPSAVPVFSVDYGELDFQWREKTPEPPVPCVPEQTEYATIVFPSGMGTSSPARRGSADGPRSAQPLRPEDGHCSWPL

For `CC(C)C[C@H]1NC(=O)[C@H](CCCN)NC(=O)[C@H](CCCNC(N)=O)NC(=O)[C@H](Cc2ccc(-c3ccccc3)cc2)NC(=O)[C@H](C(C)C)NC(=O)[C@H](Cc2c[nH]c3ccccc23)NC(=O)[C@H](CC(=O)O)NC(=O)[C@H](Cc2cccnc2)NC(=O)[C@H](CN)NC(=O)CSC[C@@H](C(=O)N[C@@H](C)C(N)=O)NC(=O)[C@H]([C@@H](C)O)NC(=O)[C@H](C(C)C)NC(=O)[C@H](CC2CCCCC2)NC(=O)[C@H](CCN)NC1=O` [Compound 2094], the IC50 under setting [1] came to 8.7 nM.

On to `C#CC[C@H](NC(=O)[C@@H]1CSCC(=O)N[C@@H](CCC)C(=O)N[C@@H](Cc2ccc(OCC(=O)O)cc2)C(=O)N[C@@H](CC(=O)O)C(=O)N[C@@H](Cc2cccc(C)c2)C(=O)N[C@@H](Cc2ccc(OCC(=O)O)cc2)C(=O)N[C@@H](Cc2ccc(-c3ccccc3)cc2)C(=O)N[C@@H](Cc2ccc(OCC(=O)O)cc2)C(=O)N[C@@H](CCCNC[C@@H](O)[C@H](O)[C@H](O)[C@@H](O)[C@H](O)CO)C(=O)N[C@H](CC(C)C)C(=O)N[C@@H](CCNC[C@@H](O)[C@H](O)[C@H](O)[C@@H](O)[C@H](O)CO)C(=O)N[C@@H](CC2CCCCC2)C(=O)N[C@@H](C(C)C)C(=O)N[C@@H](CCC(=O)O)C(=O)N1)C(=O)O` [Compound 2700] ({CH2CO}-[Nva]Y(Carboxymethyl)D[Phe(3-Me)]Y(Carboxymethyl)[Bip]Y(Carboxymethyl)[X3][dL][X4][Cha]VEC[Pra]-OH; thioether N-14), for which the IC50 under setting [1] was 62.3 nM.

Take `CC(C)C[C@@H]1NC(=O)[C@H](CC(N)=O)NC(=O)[C@@H](CC(C)C)NC(=O)[C@H](CN)NC(=O)[C@H](C(C)C)NC(=O)[C@H](Cc2ccc(-c3ccccc3)cc2)NC(=O)[C@H](C(C)C)NC(=O)[C@H](Cc2c[nH]c3ccccc23)NC(=O)[C@H](CC(=O)O)NC(=O)[C@H](Cc2ccc(C(=O)O)cc2)NC(=O)[C@H](Cc2ccc(OCC(=O)O)cc2)NC(=O)CSC[C@@H](C(=O)NCC(N)=O)NC(=O)[C@H](CO)NC(=O)[C@H](C(C)C)NC1=O` [Compound 1288] ({CH2CO}-Y(Carboxymethyl)[Phe(4-COOH)]DWV[Bip]V[Dap][dL]NLVSCG-NH2; thioether N-14): the IC50 under setting [1] stood at 38.9 nM.

As to `CC(C)C[C@H]1NC(=O)[C@H](CCCN)NC(=O)[C@H](CCC(=O)O)NC(=O)[C@H](Cc2ccc(-c3ccccc3)cc2)NC(=O)[C@H](C(C)C)NC(=O)[C@H](Cc2c[nH]c3ccccc23)NC(=O)[C@H](CC(=O)O)NC(=O)[C@H](Cc2ccc(C#N)cc2)NC(=O)[C@H](Cc2ccccc2)NC(=O)CSC[C@@H](C(=O)N[C@@H](C)C(N)=O)NC(=O)[C@H]([C@@H](C)O)NC(=O)[C@H](C(C)C)NC(=O)[C@H](CC2CCCCC2)NC(=O)[C@H](CCN)NC1=O` [Compound 2186] ({CH2CO}-F[Phe(4-CN)]DWV[Bip]E[Orn][dL][Dab][Cha]VTCA-NH2; thioether N-14), the IC50 under setting [1] amounted to 45.2 nM.

Take `C#CCOc1ccc(C[C@@H]2NC(=O)[C@H](Cc3cccc(C)c3)NC(=O)[C@H](CC(=O)O)NC(=O)[C@H](Cc3ccc(OCC(=O)O)cc3)NC(=O)[C@H](CN)NC(=O)CSC[C@@H](C(=O)N[C@@H](CCN)C(N)=O)NC(=O)[C@H](CCC(=O)O)NC(=O)[C@H](C(C)C)NC(=O)[C@H](CC3CCCCC3)NC(=O)[C@H](CCN)NC(=O)[C@@H](CC(C)C)NC(=O)[C@H](CCCN)NC(=O)[C@H](Cc3ccc(OCC(=O)O)cc3)NC(=O)[C@H](Cc3ccc(-c4ccccc4)cc3)NC2=O)cc1` [Compound 1812] ({CH2CO}-[Dap]Y(Carboxymethyl)D[Phe(3-Me)]Y(Propargyl)[Bip]Y(Carboxymethyl)[Orn][dL][Dab][Cha]VEC[Dab]-NH2; thioether N-14): the concentration for half-maximal inhibition (IC50) under setting [1] stood at 3.2 nM.

In turn, `CC[C@H](C)[C@@H]1NC(=O)[C@H](Cc2ccc(-c3ccccc3)cc2)NC(=O)[C@H](C(C)C)NC(=O)[C@H](Cc2c[nH]c3ccccc23)NC(=O)[C@H](CC(=O)O)NC(=O)[C@H](Cc2ccc(OCC(=O)O)cc2)NC(=O)[C@H](Cc2ccc(OCC(=O)O)cc2)NC(=O)CSC[C@@H](C(=O)N[C@@H](C)C(N)=O)NC(=O)[C@H]([C@@H](C)O)NC(=O)[C@H](C(C)C)NC(=O)[C@H](CC2CCCCC2)NC(=O)[C@H](Cc2c[nH]cn2)NC(=O)[C@@H](CC(C)C)NC(=O)[C@H](CCCN)NC1=O` [Compound 1592] showed an IC50 under setting [2] of 31.5 nM.

`CC[C@H](C)[C@@H]1NC(=O)[C@H](Cc2ccc(-c3ccccc3)cc2)NC(=O)[C@H](C(C)C)NC(=O)[C@H](Cc2cccc(C)c2)NC(=O)[C@H](CC(=O)O)NC(=O)[C@H](Cc2ccc(OCC(=O)O)cc2)NC(=O)[C@H](Cc2cccnc2)NC(=O)CSC[C@@H](C(=O)N[C@@H](C)C(N)=O)NC(=O)[C@H]([C@@H](C)O)NC(=O)[C@H](C(C)C)NC(=O)[C@H](CC(C)C)NC(=O)[C@H](CCN)NC(=O)[C@@H](CC(C)C)NC(=O)[C@H](CCCN)NC1=O` [Compound 1224]: under setting [2], the half-maximal inhibitory concentration (IC50) is 11.3 nM.

Turning to `Cc1cccc(C[C@@H]2NC(=O)[C@H](CC(=O)O)NC(=O)[C@H](Cc3ccc(OCC(=O)O)cc3)NC(=O)[C@H](Cc3ccncc3)NC(=O)CSC[C@@H](C(=O)N[C@@H](CCN)C(N)=O)NC(=O)[C@H](CO)NC(=O)[C@H](C(C)(C)O)NC(=O)[C@H](CC3CCCCC3)NC(=O)[C@H](CCN)NC(=O)[C@@H](CC(C)C)NC(=O)C(C3CCNCC3)NC(=O)[C@H](Cc3ccc(OCC(=O)O)cc3)NC(=O)[C@H](Cc3ccc(-c4ccccc4)cc3)NC(=O)[C@H](Cc3ccc(OCC(=O)O)cc3)NC2=O)c1` (some centres unmarked) [Compound 2083], the IC50 under setting [1] is 912 nM.

Regarding `CC(C)C[C@H]1NC(=O)[C@H](CCCN)NC(=O)[C@H](CCC(=O)O)NC(=O)[C@H](Cc2ccc(-c3ccccc3)cc2)NC(=O)[C@H](C(C)C)NC(=O)[C@H](Cc2c[nH]c3ccccc23)NC(=O)[C@H](CC(=O)O)NC(=O)[C@H](Cc2ccc(OCC(=O)O)cc2)NC(=O)[C@H](CN)NC(=O)CSC[C@@H](C(=O)N[C@@H](C)C(N)=O)NC(=O)[C@H]([C@@H](C)O)NC(=O)[C@H](C(C)C)NC(=O)[C@H](Cc2cc(F)cc(F)c2)NC(=O)[C@H](CCN)NC1=O` [Compound 1476] ({CH2CO}-[Dap]Y(Carboxymethyl)DWV[Bip]E[Orn][dL][Dab][Phe(3,5-F2)]VTCA-NH2; thioether N-14), the 50% inhibitory concentration (IC50) under setting [1] was found to be 33 nM.

With `CC(C)C[C@@H]1NC(=O)[C@H](CCN)NC(=O)[C@@H](CC(C)C)NC(=O)[C@@H](C)NC(=O)[C@H](C(C)C)NC(=O)[C@H](Cc2ccc(-c3ccccc3)cc2)NC(=O)[C@H](C(C)C)NC(=O)[C@H](Cc2c[nH]c3ccccc23)NC(=O)[C@H](CC(=O)O)NC(=O)[C@H](Cc2ccc(O)cc2)NC(=O)[C@H](CC(N)=O)NC(=O)CSC[C@@H](C(=O)N[C@@H](C)C(N)=O)NC(=O)[C@H]([C@@H](C)O)NC(=O)[C@H](C(C)C)NC1=O` [Compound 1026] ({CH2CO}-NYDWV[Bip]V[dA][dL][Dab]LVTCA-NH2; thioether N-14), under setting [1], the IC50 was 10.8 nM.

As to `CCCC[C@@H]1NC(=O)[C@H](CCN)NC(=O)[C@@H](CC(C)C)NC(=O)[C@H](CCCN)NC(=O)[C@H](CCCNC(N)=O)NC(=O)[C@H](Cc2ccc(-c3ccccc3)cc2)NC(=O)[C@H](C(C)C)NC(=O)[C@H](Cc2cccc(C)c2)NC(=O)[C@H](CC(=O)O)NC(=O)[C@H](Cc2ccc(OCC(=O)O)cc2)NC(=O)[C@H](CN)NC(=O)CSC[C@@H](C(=O)N[C@@H](C)C(N)=O)NC(=O)[C@H]([C@@H](C)O)NC(=O)[C@H](C(C)C)NC1=O` [Compound 1207] ({CH2CO}-[Dap]Y(Carboxymethyl)D[Phe(3-Me)]V[Bip][Cit][Orn][dL][Dab][Nle]VTCA-NH2; thioether N-14), the half-maximal inhibitory concentration (IC50) under setting [1] worked out at 6.8 nM.

As to `CC(C)C[C@H]1NC(=O)[C@H](CCCN)NC(=O)[C@H](CCCNC(N)=O)NC(=O)[C@H](Cc2ccc(-c3ccccc3)cc2)NC(=O)[C@H](C(C)C)NC(=O)[C@H](Cc2c[nH]c3ccccc23)NC(=O)[C@H](CC(=O)O)NC(=O)[C@H](Cc2ccc(N)cc2)NC(=O)[C@H](CN)NC(=O)CSC[C@@H](C(=O)N[C@@H](C)C(N)=O)NC(=O)[C@H]([C@@H](C)O)NC(=O)[C@H](C(C)C)NC(=O)[C@H](CC2CCCCC2)NC(=O)[C@H](CCN)NC1=O` [Compound 2105] ({CH2CO}-[Dap][Phe(4-NH2)]DWV[Bip][Cit][Orn][dL][Dab][Cha]VTCA-NH2; thioether N-14), under setting [1], the IC50 turned out to be 6.8 nM.

With `CC(C)[C@@H]1NC(=O)[C@H](Cc2c[nH]c3ccccc23)NC(=O)[C@H](CC(=O)O)NC(=O)[C@H](Cc2ccc(C(=O)O)cc2)NC(=O)[C@H](Cc2ccc(OCC(=O)O)cc2)NC(=O)CSC[C@@H](C(=O)N[C@@H](C)C(N)=O)NC(=O)[C@H]([C@@H](C)O)NC(=O)[C@H](C(C)C)NC(=O)[C@H](CC2CCCCC2)NC(=O)[C@H](CCN)NC(=O)[C@@H](CC2CCCCC2)NC(=O)[C@H](CCCN)NC(=O)[C@H](CCCNC(N)=O)NC(=O)[C@H](Cc2ccc(-c3ccccc3)cc2)NC1=O` [Compound 1642] ({CH2CO}-Y(Carboxymethyl)[Phe(4-COOH)]DWV[Bip][Cit][Orn][dCha][Dab][Cha]VTCA-NH2; thioether N-14), under setting [1], the half-inhibitory concentration (IC50) worked out at 30.4 nM.

Turning to `CC[C@H](C)[C@@H]1NC(=O)[C@H](Cc2ccc(-c3ccccc3)cc2)NC(=O)[C@H](C(C)C)NC(=O)[C@H](Cc2c[nH]c3ccccc23)NC(=O)[C@H](CC(=O)O)NC(=O)[C@H](Cc2ccc(OCC(=O)O)cc2)NC(=O)[C@H](CN)NC(=O)CSC[C@@H](C(=O)N[C@@H](C)C(N)=O)NC(=O)[C@H]([C@@H](C)O)NC(=O)[C@H](C(C)C)NC(=O)[C@H](Cc2cccc(F)c2)NC(=O)[C@H](CCN)NC(=O)[C@@H](CC(C)C)NC(=O)[C@H](CCCN)NC1=O` [Compound 1669] ({CH2CO}-[Dap]Y(Carboxymethyl)DWV[Bip]I[Orn][dL][Dab][Phe(3-F)]VTCA-NH2; thioether N-14), the 50% inhibitory concentration (IC50) under setting [1] worked out at 23.5 nM.

One may read the IC50 as the concentration that inhibits the measured activity by half.

Values taken from patent US20250163104A1, “MACROCYCLIC IMMUNOMODULATORS” (priority 2021, published 2025).
